Measurements as given in patent US20070117743A1, “New antitumoral compounds” (priority 2003, published 2007).
Where a SMILES comes first, the peptide text is derived from it. Bridges are numbered along the chain shown (N, C = ends). [ ]: non-standard residue; d: D form. The star is where a group is joined. d(aIle) = CC[C@H](C)[C@@H](N)C(=O)O; d(aThr) = C[C@@H](O)[C@@H](N)C(=O)O; Hexanoyl(5-Me) = CC(C)CCCC(=O)*; Myristoyl = CCCCCCCCCCCCCC(=O)*; Orn = NCCC[C@H](N)C(=O)O; Dhb = C/C=C(\N)C(=O)O

Experiments:
Format in all cases: cell-based, human
A-549 = assay: SRB colorimetric assay of cell growth and viability, A-549; settings: 48 hours exposure; for GI50: read-out: GI50 A-549; for CC50: read-out: LC50 A-549
LoVo-Dox = assay: SRB colorimetric assay of cell growth and viability, LoVo-Dox; settings: 48 hours exposure; for CC50: read-out: LC50 LOVO-DOX
Method in brief: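 Optical density at 490 nm of solubilized SRB, from triplicate wells, yields GI, TGI and LC values. Before staining, cells are fixed for 60 minutes at 4° C in cold TCA after a 48-hour exposure.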

SK-MEL-28 = assay: SRB colorimetric assay of cell growth and viability, SK-MEL-28; settings: 48 hours exposure; for CC50: read-out: LC50 MEL-28
IGROV-1 = assay: SRB colorimetric assay of cell growth and viability, IGROV-1; settings: 48 hours exposure
LNCaP = assay: SRB colorimetric assay of cell growth and viability, LNCaP; settings: 48 hours exposure; for GI50: read-out: GI50 LN-caP; for CC50: read-out: LC50 LN-caP
LoVo = assay: SRB colorimetric assay of cell growth and viability, LoVo; settings: 48 hours exposure; for CC50: read-out: LC50 LOVO
SK-OV-3 = assay: SRB colorimetric assay of cell growth and viability, SK-OV-3; settings: 48 hours exposure; for GI50: read-out: GI50 SKOV-3; for CC50: read-out: LC50 SKOV-3
Text: The finality of this assay is to interrupt the growth of a “in vitro” tumor cell culture by means a continued exhibition of the cells to the sample to be testing.
A colorimetric type of assay, using sulforhodamine B (SRB) reaction has been adapted for a quantitative measurement of cell growth and viability [following the technique described by Philip Skehan, et al. (1990), New colorimetric cytotoxicity assay for anticancer drug screening, J. Natl. Cancer Inst., 82:1107-1112].
This form of the assay employs 96 well cell culture microplates of 9 mm diameter (Faircloth, 1988; Mosmann, 1983). Most of the cell lines are obtained from American Type Culture Collection (ATCC) derived from different human cancer types.
Cells are maintained in RPMI 1640 10% FBS, supplemented with 0.1 g/l penicillin and 0.1 g/l streptomycin sulfate and then incubated at 37° C., 5% CO2 and 98% humidity. For the experiments, cells were harvested from subconfluent cultures using trypsin and resuspended in fresh medium before plating.
Cells are seeded in 96 well microtiter plates, at 5×10^3 cells per well in aliquots of 195 μL medium, and they are allowed to attach to the plate surface by growing in drug free medium for 18 hours. Afterward, samples are added in aliquots of 5 μL in a ranging from 10 to 10^−8 μg/mL, dissolved in DMSO:EtOH:PBS (0.5:0.5:99). After 48 hours exposure, the antitumor effect are measured by the SRB methodology: cells are fixed by adding 50 μL of cold 50% (wt/vol) trichloroacetic acid (TCA) and incubating for 60 minutes at 4° C. Plates are washed with deionized water and dried. One hundred μL of SRB solution (0.4% wt/vol in 1% acetic acid) is added to each microtiter well and incubated for 10 minutes at room temperature. Unbound SRB is removed by washing with 1% acetic acid. Plates are air dried and bound stain is solubilized with Tris buffer. Optical densities are read on a automated spectrophotometric plate reader at a single wavelength of 490 nm.
The values for mean+/− SD of data from triplicate wells are calculated. Some parameters for cellular responses can be calculated: GI=growth inhibition, TGI=total growth inhibition (cytostatic effect) and LC=cell killing (cytotoxic effect).

IGROV-ET = assay: SRB colorimetric assay of cell growth and viability, IGROV-ET; settings: 48 hours exposure; for CC50: read-out: LC50 IGROV-ET
HT-29 = assay: SRB colorimetric assay of cell growth and viability, HT-29; settings: 48 hours exposure; for GI50: read-out: GI50 HT-29; for CC50: read-out: LC50 HT-29
PANC-1 = assay: SRB colorimetric assay of cell growth and viability, PANC-1; settings: 48 hours exposure; for CC50: read-out: LC50 PANC-1
K-562 = assay: SRB colorimetric assay of cell growth and viability, K-562; settings: 48 hours exposure; for CC50: read-out: LC50 K-562
DU-145 = assay: SRB colorimetric assay of cell growth and viability, DU-145; settings: 48 hours exposure

Question: For C/C=C1\NC(=O)[C@H](Cc2ccccc2)NC(=O)[C@@H](C(C)C)NC(=O)[C@@H]([C@@H](C)CC)NC(=O)[C@H](NC(=O)[C@H](NC(=O)[C@H](CCCN)NC(=O)[C@H]2CCCN2C(=O)[C@H](NC(=O)[C@@H](NC(=O)[C@@H](NC(=O)[C@H](NC(=O)CCCCC(C)(F)F)C(C)C)[C@@H](C)O)C(C)C)C(C)C)[C@@H](C)CC)[C@@H](C)OC(=O)[C@H](C(C)C)NC1=O [Compound 28, [6,6-dFHep^14]-KF], which “TGI A-549” value (A-549) is on record?
Answer: 1.04E−06 Molar

Question: What about the GI50 (A-549) of the same compound?
Answer: 0.328 µM

Question: And the CC50 (A-549)?
Answer: 4.25 µM

Question: And the GI50 (LoVo-Dox)?
Answer: 0.172 µM

Question: What about the “TGI LOVO-DOX” value (LoVo-Dox) of the same compound?
Answer: 3.18E−07 Molar

Question: And the GI50 (SK-MEL-28)?
Answer: 1.47 µM

Question: What about the “TGI MEL-28” value (SK-MEL-28) of the same compound?
Answer: 2.55E−06 Molar

Question: What about the CC50 (SK-MEL-28) of the same compound?
Answer: 4.41 µM

Question: And the GI50 (IGROV-1)?
Answer: 0.334 µM

Question: What about the LC50 (concentration causing 50% net cell killing) (IGROV-1) of the same compound?
Answer: 2.55 µM

Question: And the “TGI IGROV” value (IGROV-1)?
Answer: 7.86E−07 Molar

Question: What about the “TGI LN-caP” value (LNCaP) of the same compound?
Answer: 1.09E−06 Molar

Question: What about the GI50 (LNCaP) of the same compound?
Answer: 0.363 µM

Question: What about the CC50 (LNCaP) of the same compound?
Answer: 3.1 µM

Question: What about the GI50 (LoVo) of the same compound?
Answer: 0.196 µM

Question: And the “TGI LOVO” value (LoVo)?
Answer: 3.70E−07 Molar

Question: What about the CC50 (LoVo) of the same compound?
Answer: 0.872 µM

Question: And the “TGI SKOV-3” value (SK-OV-3)?
Answer: 3.36E−07 Molar

Question: What about the GI50 (SK-OV-3) of the same compound?
Answer: 0.145 µM

Question: And the CC50 (SK-OV-3)?
Answer: 1.01 µM

Question: What about the GI50 (IGROV-ET) of the same compound?
Answer: 0.228 µM

Question: And the “TGI IGROV-ET” value (IGROV-ET)?
Answer: 3.59E−07 Molar

Question: What about the CC50 (IGROV-ET) of the same compound?
Answer: 0.568 µM

Question: What about the “TGI HT-29” value (HT-29) of the same compound?
Answer: 1.54E−06 Molar

Question: What about the GI50 (HT-29) of the same compound?
Answer: 0.649 µM

Question: What about the CC50 (HT-29) of the same compound?
Answer: 3.63 µM

Question: And the GI50 (PANC-1)?
Answer: 1.48 µM

Question: And the “TGI PANC-1” value (PANC-1)?
Answer: 2.52E−06 Molar

Question: And the CC50 (PANC-1)?
Answer: 4.3 µM

Question: What about the GI50 (K-562) of the same compound?
Answer: 1.88 µM

Question: And the “TGI K-562” value (K-562)?
Answer: 2.99E−04 Molar

Question: What about the CC50 (K-562) of the same compound?
Answer: 4.75 µM

Question: What about the GI50 (DU-145) of the same compound?
Answer: 0.215 µM

Question: And the LC50 (concentration causing 50% net cell kill) (DU-145)?
Answer: 2.09 µM

Question: And the “TGI DU-145” value (DU-145)?
Answer: 5.59E−07 Molar

Question: Which results are given for C/C=C1\NC(=O)[C@H](Cc2ccccc2)NC(=O)[C@@H](C(C)C)NC(=O)[C@@H]([C@@H](C)CC)NC(=O)[C@H](NC(=O)[C@H](NC(=O)[C@H](CCCN)NC(=O)[C@H]2CCCN2C(=O)[C@H](NC(=O)CCCC(C)C)C(C)C)[C@@H](C)CC)[C@@H](C)OC(=O)[C@H](C(C)C)NC1=O [Compound 31, [noVal^11, noThr^12, noD-Val^13]-KF] ({Hexanoyl(5-Me)}-[dV][dP][Orn][d(aIle)][d(aThr)][d(aIle)][dV]F[Dhb]V; ester 5-C)?
Answer: TGI A-549 (A-549): 8.49E−06 Molar; GI50 (A-549): 5.91 µM; CC50 (A-549): 8.49 µM; GI50 (LoVo-Dox): 2.38 µM; TGI LOVO-DOX (LoVo-Dox): 4.00E−06 Molar; CC50 (LoVo-Dox): ≥ 6.75 µM; GI50 (SK-MEL-28): 4.21 µM; TGI MEL-28 (SK-MEL-28): 8.49E−06 Molar; CC50 (SK-MEL-28): 8.49 µM; GI50 (IGROV-1): 2.69 µM; LC50 (concentration causing 50% net cell killing) (IGROV-1): 6.25 µM; TGI IGROV (IGROV-1): 4.10E−06 Molar; TGI LN-caP (LNCaP): 3.79E−06 Molar; GI50 (LNCaP): 1.94 µM; CC50 (LNCaP): 7.39 µM; GI50 (LoVo): 8.49 µM; TGI LOVO (LoVo): 8.49E−06 Molar; CC50 (LoVo): 8.49 µM; TGI SKOV-3 (SK-OV-3): 5.03E−06 Molar; GI50 (SK-OV-3): 2.21 µM; CC50 (SK-OV-3): 8.49 µM; GI50 (IGROV-ET): 2.69 µM; TGI IGROV-ET (IGROV-ET): 4.07E−06 Molar; CC50 (IGROV-ET): 6.18 µM; TGI HT-29 (HT-29): 8.49E−06 Molar; GI50 (HT-29): 8.49 µM; CC50 (HT-29): 8.49 µM; GI50 (PANC-1): 2.12 µM; TGI PANC-1 (PANC-1): 3.63E−06 Molar; CC50 (PANC-1): 6.23 µM; GI50 (K-562): 2.21 µM; TGI K-562 (K-562): 4.26E−06 Molar; CC50 (K-562): 8.18 µM; GI50 (DU-145): 3.3 µM; LC50 (concentration causing 50% net cell kill) (DU-145): 8.49 µM; TGI DU-145 (DU-145): 6.37E−06 Molar

Question: Which results are given for C/C=C1\NC(=O)[C@H](Cc2ccccc2)NC(=O)[C@@H](C(C)C)NC(=O)[C@@H]([C@@H](C)CC)NC(=O)[C@H](NC(=O)[C@H](NC(=O)[C@H](CCCN)NC(=O)[C@H]2CCCN2C(=O)[C@H](NC(=O)CCCCCCCCCCCCC)C(C)C)[C@@H](C)CC)[C@@H](C)OC(=O)[C@H](C(C)C)NC1=O [Compound 32, [noVal^11, noThr^12, noD-Val^13, Mst^14]-KF] (Myristoyl-[dV][dP][Orn][d(aIle)][d(aThr)][d(aIle)][dV]F[Dhb]V; ester 5-C)?
Answer: TGI A-549 (A-549): 7.83E−06 Molar; GI50 (A-549): 5.19 µM; CC50 (A-549): 7.83 µM; GI50 (LoVo-Dox): 2.15 µM; TGI LOVO-DOX (LoVo-Dox): 3.66E−06 Molar; CC50 (LoVo-Dox): 6.21 µM; GI50 (SK-MEL-28): 2.08 µM; TGI MEL-28 (SK-MEL-28): 3.63E−06 Molar; CC50 (SK-MEL-28): 6.34 µM; GI50 (IGROV-1): 2.29 µM; LC50 (concentration causing 50% net cell killing) (IGROV-1): 5.51 µM; TGI IGROV (IGROV-1): 3.56E−06 Molar; TGI LN-caP (LNCaP): 3.08E−06 Molar; GI50 (LNCaP): 1.42 µM; CC50 (LNCaP): 6.67 µM; GI50 (LoVo): 7.83 µM; TGI LOVO (LoVo): 7.83E−06 Molar; CC50 (LoVo): 7.83 µM; TGI SKOV-3 (SK-OV-3): 6.27E−06 Molar; GI50 (SK-OV-3): 2.34 µM; CC50 (SK-OV-3): 7.83 µM; GI50 (IGROV-ET): 2.06 µM; TGI IGROV-ET (IGROV-ET): 3.26E−06 Molar; CC50 (IGROV-ET): 5.16 µM; TGI HT-29 (HT-29): 7.83E−06 Molar; GI50 (HT-29): 7.66 µM; CC50 (HT-29): 7.83 µM; GI50 (PANC-1): 1.78 µM; TGI PANC-1 (PANC-1): 3.12E−06 Molar; CC50 (PANC-1): 5.49 µM; GI50 (K-562): 1.91 µM; TGI K-562 (K-562): 4.21E−06 Molar; CC50 (K-562): 7.83 µM; GI50 (DU-145): 2.12 µM; LC50 (concentration causing 50% net cell kill) (DU-145): 6.81 µM; TGI DU-145 (DU-145): 3.80E−06 Molar
